Molecular target: T1, integrin α4β7 (Homo sapiens, UniProt P13612+P26010)
T1 sequence (P13612 34-977 limits assumed): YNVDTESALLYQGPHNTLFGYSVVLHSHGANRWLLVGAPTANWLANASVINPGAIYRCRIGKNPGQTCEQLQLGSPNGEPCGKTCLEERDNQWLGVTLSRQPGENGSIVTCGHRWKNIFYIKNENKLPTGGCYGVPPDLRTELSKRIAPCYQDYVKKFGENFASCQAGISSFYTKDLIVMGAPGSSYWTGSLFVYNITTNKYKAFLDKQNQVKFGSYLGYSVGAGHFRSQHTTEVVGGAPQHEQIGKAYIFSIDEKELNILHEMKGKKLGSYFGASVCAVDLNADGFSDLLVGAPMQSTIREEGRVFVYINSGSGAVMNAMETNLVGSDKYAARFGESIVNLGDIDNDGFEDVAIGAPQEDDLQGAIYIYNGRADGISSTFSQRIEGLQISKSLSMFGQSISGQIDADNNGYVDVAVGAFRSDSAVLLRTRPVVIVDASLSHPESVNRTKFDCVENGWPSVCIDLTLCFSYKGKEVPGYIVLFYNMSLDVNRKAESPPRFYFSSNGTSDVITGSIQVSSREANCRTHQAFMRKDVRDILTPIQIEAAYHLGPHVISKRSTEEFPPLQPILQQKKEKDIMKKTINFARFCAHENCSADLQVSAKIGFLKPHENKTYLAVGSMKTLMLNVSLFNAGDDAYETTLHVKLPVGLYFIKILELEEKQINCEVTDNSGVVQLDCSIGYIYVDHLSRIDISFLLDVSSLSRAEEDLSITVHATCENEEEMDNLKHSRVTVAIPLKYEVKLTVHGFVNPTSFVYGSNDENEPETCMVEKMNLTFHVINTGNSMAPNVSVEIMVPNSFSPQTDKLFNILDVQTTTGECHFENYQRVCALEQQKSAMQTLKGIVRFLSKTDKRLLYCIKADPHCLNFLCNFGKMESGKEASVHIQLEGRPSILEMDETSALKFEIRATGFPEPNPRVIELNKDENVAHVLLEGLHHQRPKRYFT
T1 sequence (P26010 20-723 limits assumed): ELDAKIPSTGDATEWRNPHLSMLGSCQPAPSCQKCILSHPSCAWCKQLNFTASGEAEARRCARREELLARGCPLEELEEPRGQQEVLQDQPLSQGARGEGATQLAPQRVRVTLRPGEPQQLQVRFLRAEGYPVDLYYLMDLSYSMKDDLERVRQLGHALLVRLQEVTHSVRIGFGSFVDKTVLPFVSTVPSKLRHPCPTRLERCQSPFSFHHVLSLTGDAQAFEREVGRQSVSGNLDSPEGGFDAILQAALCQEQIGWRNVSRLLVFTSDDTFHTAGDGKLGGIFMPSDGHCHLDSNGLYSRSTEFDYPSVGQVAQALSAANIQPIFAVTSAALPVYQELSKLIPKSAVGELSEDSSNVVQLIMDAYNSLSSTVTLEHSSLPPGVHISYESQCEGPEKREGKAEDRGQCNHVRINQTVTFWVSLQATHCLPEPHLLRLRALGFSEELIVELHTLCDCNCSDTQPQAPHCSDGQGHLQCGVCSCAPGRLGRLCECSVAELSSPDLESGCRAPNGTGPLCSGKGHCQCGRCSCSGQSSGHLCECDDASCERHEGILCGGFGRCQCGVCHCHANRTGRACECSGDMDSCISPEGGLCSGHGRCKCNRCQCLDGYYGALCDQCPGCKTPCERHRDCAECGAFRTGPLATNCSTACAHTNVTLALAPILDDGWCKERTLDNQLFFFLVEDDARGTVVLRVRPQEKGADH
Assay: Fluorescence Polarization (FP) assay for α4β7 binding, competition with fluorescein-labeled peptide
Conditions: 6.5 nM integrin α4β7, 3 nM fluorescein-labeled peptide, 2 mM MnCl2; read-out: FP Assay (Example 5) IC50
Procedure: Three in vitro assays were used to examine the α4β7 mechanistic process used by cells: 1) ligand:receptor affinity, 2) the avidity of those interactions on a cell's surface, and 3) how those interactions fare under an imposing force. In Example 5, a Fluorescence Polarization (FP) assay is used to measure compound activity through binding competition with the fluorescein-labeled peptide. In Example 6, the potency of compounds against α4β7 is measured in the cell-based ligand binding assay (LBA), using RPMI 8866 cells incubated with the compound samples in competition with soluble MAdCAM-1 ligand. In Example 7, activity of compounds is evaluated in a cell adhesion assay that mechanistically tests what occurs in vivo when trafficking cells utilize α4β7 to adhere to MAdCAM-1 expressing HEVs of the gut during the extravasation process. In the cell adhesion assay of Example 7, a MAdCAM1-(Fc) is coated on plastic, and α4β7 expressing cells (RPMI-8866) are allowed to adhere to the coated surface in the presence of the test compounds. Next, the force of washing with buffer is applied to cells thereby testing the strength of that adhesion. Unattached cells are removed and the remaining adherent cells are quantified.
Fluorescence Polarization (FP) assays were used to measure compound activity through binding competition with the fluorescein-labeled peptide […]{Lys(FITC)}. In the assay, 6.5 nM of integrin α4β7 was incubated with the test compound in 2 mM manganese chloride, 0.1 mM calcium chloride, 20 mM HEPES buffer at pH 7.3, 150 mM sodium chloride, 0.01% Triton X-100, 2% DMSO, and 3 nM of the fluorescein-labeled peptide. Running the assays in 384-well plates, the integrin protein was pre-incubated with the test compounds for 15 minutes at 22° C. before the fluorescein-labeled peptide was added. After the fluorescein-labeled peptide was added, the assay was incubated at 22° C. for 1 hour and fluorescence polarization was measured. IC50 values were determined by non-linear regression, four-parameter curve fitting.

Cc1cc(F)c(C)c(C)c1-c1cc(C(F)(F)F)c(F)c([C@H](CC(=O)O)NC(=O)[C@H](CC(C)C)n2cc(CCN3CCC3)c(C(F)(F)F)cc2=O)c1F [KT-P2, (3S)-3-(2-(5-(2-(azetidin-1-yl)ethyl)-2-oxo-4-(trifluoromethyl)pyridin-1(2H)-yl)-4-methylpentanamido)-3-(2,4,4′-trifluoro-2′,3′,6′-trimethyl-5-(trifluoromethyl)-[1,1′-biphenyl]-3-yl)propanoic Acid] and Cc1cc(C)c(-c2cc(C(F)(F)F)c(F)c([C@H](CC(=O)O)NC(=O)[C@H](CC(C)C)n3cc(CCN4CCC4)c(C(F)(F)F)cc3=O)c2F)c(C)c1 [IG-P2, (3S)-3-(2-(5-(2-(azetidin-1-yl)ethyl)-2-oxo-4-(trifluoromethyl)pyridin-1(2H)-yl)-4-methylpentanamido)-3-(2,4-difluoro-2′,4′,6′-trimethyl-5-(trifluoromethyl)biphenyl-3-yl)propanoic Acid] cannot be ordered by IC50: no more than 10 nM for the first, no more than 10 nM for the second.

Cc1cc(C)c(-c2cc(C(F)(F)F)c(F)c([C@H](CC(=O)O)NC(=O)[C@H](CC(C)C)n3cc(CCN(C)C)c(C(F)(F)F)cc3=O)c2F)c(C)c1 [IF-P2, (3S)-3-(2,4-difluoro-2′,4′,6′-trimethyl-5-(trifluoromethyl)-[1,1′-biphenyl]-3-yl)-3-(2-(5-(2-(dimethylamino)ethyl)-2-oxo-4-(trifluoromethyl)pyridin-1(2H)-yl)-4-methylpentanamido)propanoic Acid] and Cc1cc(C)c(-c2cc(C(F)(F)F)c(F)c([C@H](CC(=O)O)NC(=O)[C@H](CC(C)C)n3cc(CCCN(C)C)c(C(F)(F)F)cc3=O)c2F)c(C)c1 [HZ-P2, (3S)-3-(2,4-difluoro-2′,4′,6′-trimethyl-5-(trifluoromethyl)biphenyl-3-yl)-3-(2-(5-(3-(dimethylamino)propyl)-2-oxo-4-(trifluoromethyl)pyridin-1(2H)-yl)-4-methylpentanamido)propanoic Acid] cannot be ordered by IC50: no more than 10 nM for the first, no more than 10 nM for the second.

Cc1cc(C2CC2)cc(C)c1-c1cc(C(F)(F)F)c(F)c([C@H](CC(=O)O)NC(=O)[C@H](CC(C)C)n2cc(CCCN(C)C)c(C(F)(F)F)cc2=O)c1F [HU-P2, (3S)-3-(4′-cyclopropyl-2,4-difluoro-2′,6′-dimethyl-5-(trifluoromethyl)-[1,1′-biphenyl]-3-yl)-3-(2-(5-(3-(dimethylamino)propyl)-2-oxo-4-(trifluoromethyl)pyridin-1(2H)-yl)-4-methylpentanamido)propanoic Acid] and Cc1cc(F)cc(C)c1-c1cc(C(F)(F)F)c(F)c([C@H](CC(=O)O)NC(=O)[C@H](CC(C)C)n2cc(CCCN(C)C)c(C(F)(F)F)cc2=O)c1F [HW-P2, (3S)-3-(2-(5-(3-(dimethylamino)propyl)-2-oxo-4-(trifluoromethyl)pyridin-1(2H)-yl)-4-methylpentanamido)-3-(2,4,4′-trifluoro-2′,6′-dimethyl-5-(trifluoromethyl)-[1,1′-biphenyl]-3-yl)propanoic Acid] cannot be ordered by IC50: no more than 10 nM for the first, no more than 10 nM for the second.

Cc1cc(C)c(-c2cc(C3CC3)c(F)c([C@H](CC(=O)O)NC(=O)[C@H](CC(C)C)n3cc(CCN4CCC4)c(C(F)(F)F)cc3=O)c2F)c(C)c1 [HM-P2, (3S)-3-(2-(5-(2-(azetidin-1-yl)ethyl)-2-oxo-4-(trifluoromethyl)pyridin-1(2H)-yl)-4-methylpentanamido)-3-(5-cyclopropyl-2,4-difluoro-2′,4′,6′-trimethylbiphenyl-3-yl)propanoic Acid] and Cc1ccc(F)c(C)c1-c1cc(C2CC2)c(F)c([C@H](CC(=O)O)NC(=O)[C@H](CC(C)C)n2cc(CCN3CCC3)c(C(F)(F)F)cc2=O)c1F [HH-P2, (3S)-3-(2-(5-(2-(azetidin-1-yl)ethyl)-2-oxo-4-(trifluoromethyl)pyridin-1(2H)-yl)-4-methylpentanamido)-3-(5-cyclopropyl-2,3′,4-trifluoro-2′,6′-dimethyl-[1,1′-biphenyl]-3-yl)propanoic Acid] cannot be ordered by IC50: no more than 10 nM for the first, no more than 10 nM for the second.

Cc1cc(-c2c(C)ccc(F)c2C)cc([C@H](CC(=O)O)NC(=O)C(CC(C)C)n2cc(CCN3CCC3)c(C(F)(F)F)cc2=O)c1F (single isomer, unassigned) [AF-P2] and Cc1cc(C)c(-c2cc(C)c(F)c([C@H](CC(=O)O)NC(=O)[C@H](CC(C)C)n3cc(CCCN(C)C)c(C(F)(F)F)cc3=O)c2F)c(C)c1F [IW-P2, (3S)-3-(2-(5-(3-(dimethylamino)propyl)-2-oxo-4-(trifluoromethyl)pyridin-1(2H)-yl)-4-methylpentanamido)-3-(2,3′,4-trifluoro-2′,4′,5,6′-tetramethyl-[1,1′-biphenyl]-3-yl)propanoic Acid] cannot be ordered by IC50: no more than 10 nM for the first, no more than 10 nM for the second.

Cc1cc(-c2c(C)cc(F)cc2C)cc([C@H](CC(=O)O)NC(=O)[C@H](CC(C)C)n2cc(CCN(C)C)cc(C(F)F)c2=O)c1F [I-P2, (3S)-3-(4,4′-difluoro-2′,5,6′-trimethyl-[1,1′-biphenyl]-3-yl)-3-(2-(3-(difluoromethyl)-5-(2-(dimethylamino)ethyl)-2-oxopyridin-1(2H)-yl)-4-methylpentanamido)propanoic Acid] and Cc1ccn([C@@H](CC(C)C)C(=O)N[C@H](CC(=O)O)c2cncc(-c3c(C)cccc3C)c2)c(=O)c1 [Example C-28, reference compound] cannot be ordered by IC50: no more than 10 nM for the first, 10 to 500 nM for the second.

Cc1ccn([C@@H](NC(C)C)C(=O)N[C@@H](CC(=O)O)c2cncc(-c3c(C)cccc3C)c2)c(=O)c1 [Example C-7, reference compound] was tested, and the IC50 was no more than 10 nM.

From US11370773B1, “Inhibiting human integrin (alpha-4) (beta-7)” (Morphic Therapeutic, Inc., priority 2019, dated 2022)
